Reference: patent publication US20060046968A1, “Prodrug substituted benzoxazoles as estrogenic agents” (priority 2004, published 2006)
pIC50: −log10 of the molar value. Read-outs that look alike come from different tables or passages of the source. Blank lines part the entries; values can stand above or below the molecule they belong to.

Columns and labels:
human ERβ = molecular target: T1, human ERβ (Homo sapiens, UniProt Q92731); test: ER radioligand binding competition, ERβ
T1 construct: Flag (C); made in house; host or cells: E. coli BL21 (DE3), clarified lysate

human ERα = molecular target: T2, human ERα (Homo sapiens, UniProt P03372); test: ER radioligand binding competition, ERα
T2 construct: These templates contained amino acids M250-V595 of human ERα; His (N); Flag (C); made in house; host or cells: E. coli BL21 (DE3), clarified lysate
T2 sequence (P03372 250-595): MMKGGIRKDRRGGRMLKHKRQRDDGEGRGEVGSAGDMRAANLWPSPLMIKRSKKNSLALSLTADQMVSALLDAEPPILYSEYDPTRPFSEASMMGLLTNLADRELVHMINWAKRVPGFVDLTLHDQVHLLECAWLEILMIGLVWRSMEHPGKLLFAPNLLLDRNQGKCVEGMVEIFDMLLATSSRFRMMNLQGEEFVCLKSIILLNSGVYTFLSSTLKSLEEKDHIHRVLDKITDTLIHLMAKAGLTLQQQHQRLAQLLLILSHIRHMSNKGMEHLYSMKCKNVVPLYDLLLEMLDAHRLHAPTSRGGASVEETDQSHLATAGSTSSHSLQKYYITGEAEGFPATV

Lewis rats = test: Lewis rat adjuvant-induced arthritis, treatment protocol: joint score (maximal score per day 12); assay type: in vivo; conditions: s.c. daily, begun Day 8 after adjuvant
[1] = system: ovariectomized Sprague-Dawley rats; test: Bone mineral density in the ovariectomized rat (pQCT, proximal tibia); assay type: in vivo; conditions: 17β-estradiol 2 μg/rat s.c.; 5 weeks
[2] = system: Sexually immature 129 SvE mice; test: Mouse uterotrophic test procedure (Procedure 2); assay type: in vivo; conditions: compound 50 mg/kg s.c., days 22-25
[3] = competition with [3H]-17β-estradiol, read-out: ER-α IC50

T1 sequence (Q92731 214-530): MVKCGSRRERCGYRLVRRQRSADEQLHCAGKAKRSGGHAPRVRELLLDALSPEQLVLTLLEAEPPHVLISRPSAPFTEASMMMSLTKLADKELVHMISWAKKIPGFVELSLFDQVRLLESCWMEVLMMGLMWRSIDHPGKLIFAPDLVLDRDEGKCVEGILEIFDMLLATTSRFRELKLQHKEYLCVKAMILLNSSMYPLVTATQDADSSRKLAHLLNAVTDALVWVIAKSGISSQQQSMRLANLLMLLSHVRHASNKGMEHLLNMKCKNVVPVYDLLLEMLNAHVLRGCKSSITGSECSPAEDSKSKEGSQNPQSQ

Structure (SMILES): C=C(C)c1cc(O)cc2nc(-c3ccc(O)cc3)oc12 [Example 51, 2-(4-HYDROXYPHENYL)-7-ISOPROPENYL-1,3-BENZOXAZOL-5-OL]
- pIC50 (human ERβ): 6.85
- pIC50 (human ERα; [3]): 6.11

- pIC50 (human ERα): 5.82
Structure (SMILES): Oc1ccc2nc(-c3cccc(O)c3O)oc2c1 [Example 9, 3-(6-HYDROXY-1,3-BENZOXAZOL-2-YL)BENZENE-1,2-DIOL]

- pIC50 (human ERα): 6.07
Structure (SMILES): Oc1ccc2nc(-c3ccc(O)c(F)c3)oc2c1 [Example 6, 2-(3-FLUORO-4-HYDROXYPHENYL)-1,3-BENZOXAZOL-6-OL]

- pIC50 (human ERα): 6.39
Structure (SMILES): C=Cc1cc(O)cc2nc(-c3ccc(O)cc3)oc12 [Example 27, 2-(4-HYDROXYPHENYL)-7-VINYL-1,3-BENZOXAZOL-5-OL]
- Joint inflammation score (Lewis rats; table Day 1): 11.33
- Joint inflammation score (Lewis rats; table Day 2): 11.15
- Joint inflammation score (Lewis rats; table Day 3): 11.33
- Joint inflammation score (Lewis rats; table Day 4): 9.83
- Joint inflammation score (Lewis rats; table Day 5): 8.83
- Joint inflammation score (Lewis rats; table Day 6): 7.83
- Joint inflammation score (Lewis rats; table Day 7): 6.16
- Joint inflammation score (Lewis rats; table Day 8): 5.00
- Joint inflammation score (Lewis rats; table Day 9): 4.33
- Joint inflammation score (Lewis rats; table Day 10): 2.66
- Joint inflammation score (Lewis rats; table Day 11): 1.83
- Joint inflammation score (Lewis rats; table Day 12): 1.83
- Joint inflammation score (Lewis rats; table Day 13): 2.66
- Joint inflammation score (Lewis rats; table Day 14): 2.66
- Joint inflammation score (Lewis rats; table Day 15): 2.00
- Joint inflammation score (Lewis rats; table Day 16): 2.00
- Joint inflammation score (Lewis rats; table Day 17): 1.50

Structure (SMILES): Oc1ccc(O)c(-c2nc3ccc(O)cc3o2)c1 [Example 8, 2-(6-HYDROXY-1,3-BENZOXAZOL-2-YL)BENZENE-1,4-DIOL]
- pIC50 (human ERβ): 6.74
- pIC50 (human ERα; [3]): 5.63

Structure (SMILES): C=C(Br)c1cc(O)cc2nc(-c3ccc(O)cc3)oc12 [Example 31, 7-(1-BROMOVINYL)-2-(4-HYDROXYPHENYL)-1,3-BENZOXAZOL-5-OL]
- pIC50 (human ERβ): 7.51
- pIC50 (human ERα; [3]): 6.45

Structure (SMILES): Oc1ccc(O)c(-c2nc3cc(O)ccc3o2)c1 [Example 1, 2-(5-HYDROXY-1,3-BENZOXAZOL-2-YL) BENZENE-1,4-DIOL]
- pIC50 (human ERβ): 6.85
- pIC50 (human ERα; [3]): 6.14

Structure (SMILES): Oc1ccc(-c2nc3cc(O)cc(C(Br)CBr)c3o2)cc1 (stereo not drawn) [Example 30, 7-(1,2-DIBROMOETHYL)-2-(4-HYDROXYPHENYL)-1,3-BENZOXAZOL-5-OL]
- pIC50 (human ERβ): 6.87
- pIC50 (human ERα; [3]): 5.51

Structure (SMILES): Oc1cc(Br)c2oc(-c3ccc(O)c(F)c3F)nc2c1 [Example 23, 7-BROMO-2-(2,3-DIFLUORO-4-HYDROXYPHENYL)-1,3-BENZOXAZOL-5-OL]
- pIC50 (human ERβ): 8.52
- pIC50 (human ERα; [3]): 6.95

Structure (SMILES): C[C@]12CC[C@@H]3c4ccc(O)cc4CC[C@H]3[C@@H]1CC[C@@H]2O [17β-estradiol, reference compound]
- Total Bone Mineral Density (mean ± SEM) [1]: 639.49 ± 14.47 mg/mL
- Trabecular Bone Mineral Density (mean ± SEM) [1]: 453.28 ± 24.93 mg/mL

Structure (SMILES): COc1cc(O)c(Br)c2nc(-c3ccc(O)cc3)oc12 [Example 59, 4-BROMO-2-(4-HYDROXYPHENYL)-7-METHOXY-1,3-BENZOXAZOL-5-OL]
- pIC50 (human ERβ): 7.28
- pIC50 (human ERα; [3]): 5.57

Structure (SMILES): CCc1cc(O)ccc1-c1nc2cc(O)cc(CC)c2o1 [Example 45, 7-ETHYL-2-(2-ETHYL-4-HYDROXYPHENYL)-1,3-BENZOXAZOL-5-OL]
- pIC50 (human ERβ): 7.08
- pIC50 (human ERα; [3]): 6.18

Structure (SMILES): C=C(Br)c1cc(O)cc2nc(-c3ccc(O)c(F)c3F)oc12 [Example 33, 7-(1-BROMOVINYL)-2-(2,3-DIFLUORO-4-HYDROXYPHENYL)-1,3-BENZOXAZOL-5-OL]
- pIC50 (human ERβ): 7.51
- pIC50 (human ERα; [3]): 6.45

Structure (SMILES): NC(=O)c1cc(O)cc2nc(-c3ccc(O)cc3)oc12 [Example 42, 5-HYDROXY-2-(4-HYDROXYPHENYL)-1,3-BENZOXAZOL-7-CARBOXAMIDE]
- mean uterine weight ± SEM [2]: 9.5 ± 0.6 mg

Structure (SMILES): CC(C)(O)c1cc(O)cc2nc(-c3ccc(O)cc3)oc12 [Example 50]
- pIC50 (human ERβ): 6.40
- pIC50 (human ERα; [3]): < 5.30

Structure (SMILES): C=C(Br)c1cc(O)cc2nc(-c3ccc(O)cc3F)oc12 [Example 32, 7-(1-BROMOVINYL)-2-(2-FLUORO-4-HYDROXYPHENYL)-1,3-BENZOXAZOL-5-OL]
- pIC50 (human ERβ): 7.80
- Joint inflammation score (Lewis rats; table Day 1): 11.33
- Joint inflammation score (Lewis rats; table Day 2): 10.83
- Joint inflammation score (Lewis rats; table Day 3): 9.33
- Joint inflammation score (Lewis rats; table Day 4): 8.00
- Joint inflammation score (Lewis rats; table Day 5): 5.83
- Joint inflammation score (Lewis rats; table Day 6): 3.33
- Joint inflammation score (Lewis rats; table Day 7): 3.00
- Joint inflammation score (Lewis rats; table Day 8): 2.50
- Joint inflammation score (Lewis rats; table Day 9): 2.50
- Joint inflammation score (Lewis rats; table Day 10): 2.50
- Joint inflammation score (Lewis rats; table Day 11): 2.50
- Joint inflammation score (Lewis rats; table Day 12): 2.50
- Joint inflammation score (Lewis rats; table Day 13): 2.50
- Joint inflammation score (Lewis rats; table Day 14): 2.50
- Joint inflammation score (Lewis rats; table Day 15): 2.00
- Joint inflammation score (Lewis rats; table Day 16): 1.33
- Joint inflammation score (Lewis rats; table Day 17): 1.00
- pIC50 (human ERα; [3]): 6.71

Structure (SMILES): Oc1cc(Br)c2oc(-c3cc(F)c(O)c(F)c3)nc2c1 [Example 61, 7-BROMO-2-(3,5-DIFLUORO-4-HYDROXYPHENYL)-1,3-BENZOXAZOL-5-OL]
- pIC50 (human ERβ): 7.03
- pIC50 (human ERα; [3]): 5.93

Structure (SMILES): COc1c(Br)c(O)c(Br)c2nc(-c3ccc(O)cc3)oc12 [Example 60, 4,6-DIBROMO-2-(4-HYDROXYPHENYL)-7-METHOXY-1,3-BENZOXAZOL-5-OL]
- pIC50 (human ERβ): 7.19
- pIC50 (human ERα; [3]): 6.25
